Reference: patent US5808151A, “Biphenylamido derivatives as melatonergic agents” (Bristol-Myers Squibb Company, priority 1997, dated 1998)
pIC50: −log10 of the molar value.

How the values were obtained:
[1] = molecular target: T1, ML1a human melatonin receptor (Homo sapiens, UniProt P48039); test: Melatonergic binding: ML1a human melatonin receptor binding (2-[125I]-iodomelatonin, COS-1 cell membranes); conditions: human ML1a in COS-1 cells; 37° C., 1 hour; read-out: In-Vitro Receptor Binding Activities ML1a (IC50)
T1 construct: expressed in transfected cells; host or cells: COS-1 cells
Protocol: (§1) The melatonergic binding of the compounds of Formula I was determined by the method of Reppert, S. M., et al., as described in Neuron, Vol. 13, 1177-1185 (1994) and Proc. Nat. Acad. Sci. USA, 92, 8734-8738 (1995) and also as described by Stankov, B., et al., "Characterization and mapping of melatonin receptors in the brain of three mammalian species: Rabbit, horse and sheep," in Neuroendocrinology, 53, 214-221 (1991). The assays were incubated at 37° C. for 1 hour, and the reaction was terminated by filtration through a Brandel cell harvester. The filters were washed 3 times with wash buffer. […] The reagents, membranes, and techniques used in the melatonergic binding assays are more fully described below:
(§2) (a) 50 mM Tris buffer containing 12.5 mM MgCl2 and 2 mM EDTA (pH 7.4 at 37° C.).
(§3) (b) Wash buffer: 20 mM Tris base containing 2 mM MgCl2 (pH 7.4 at room temperature).
(§4) (c) 6-Chloromelatonin (10^-5 M final concn.).
(§5) (d) 2-[^125 I]-Iodomelatonin. Source: New England Nuclear
The cDNA (human ML1a) was introduced into COS-1 cells by the DEAE-dextran method. Three days later, the media was removed, the plates washed with phosphate buffered saline, the cells removed using Hank's balanced salt solution and pelleted. The supernatant was discarded and the pellets frozen. For preparing membrane homogenates, the pellets are thawed on ice, and resuspended in TME buffer [Tris base, MgCl2, EDTA (pH 7.4 at 37° C.], supplemented with aprotinin, leupeptin and phenylmethyl-sulfonylfluoride. The cells were then homogenized using a dounce homogenizer and centrifuged. The resulting pellet was resuspended with a dounce homogenizer in TME and frozen. On the day of assay, a small aliquot was thawed on ice and resuspended in TME buffer (1:1000).

[2] = molecular target: ML1 rabbit melatonin receptor; test: Melatonergic binding: ML1 rabbit melatonin receptor binding (2-[125I]-iodomelatonin, rabbit parietal cortex); parameters: species or system rabbit (Male New Zealand white); conditions: 37° C., 1 hour, read-out: In-Vitro Receptor Binding Activities ML1 (IC50)
Protocol: as §1, §2, §3, §4, §5
Male New Zealand white rabbits (Hazelton Research) are decapitated, the brains are rapidly removed and chilled. The parietal cortex is crudely dissected and the tissue frozen on dry ice at -80° C. until assayed. Tissue is weighed and thawed in 20 mls of ice-cold Tris buffer (a) and then homogenized by treatment with a polytron for 10 seconds at setting 17. Ice cold Tris (a) is added to a volume of 40 ml. The homogenate is centrifuged in a Sorvall-SS-34 head at 19,000 rpm (44,000× g) for 20 min at 4° C. The resulting supernatant is decanted and discarded. The pellet is re-homogenized in an additional 20 ml of Tris buffer, diluted and centrifuged as before. The supernatant is decanted and discarded. The resulting pellet is homogenized in 20 volumes of Tris buffer per gram of original tissue (a 1:20 homogenate), chilled, and held on ice until assayed.

T1 sequence (P48039 whole entry): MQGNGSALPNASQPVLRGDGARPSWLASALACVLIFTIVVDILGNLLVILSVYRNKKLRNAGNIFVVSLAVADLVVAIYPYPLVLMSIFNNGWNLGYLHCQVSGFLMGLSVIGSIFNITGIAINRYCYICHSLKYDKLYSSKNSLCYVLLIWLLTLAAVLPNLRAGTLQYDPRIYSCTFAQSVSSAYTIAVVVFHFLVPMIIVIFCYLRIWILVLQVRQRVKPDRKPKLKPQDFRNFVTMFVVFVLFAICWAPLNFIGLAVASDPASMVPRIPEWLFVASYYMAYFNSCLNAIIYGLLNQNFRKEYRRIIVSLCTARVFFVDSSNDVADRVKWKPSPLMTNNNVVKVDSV

Row | SMILES | pIC50 [1] | pIC50 [2]
1 | CCC(=O)Nc1cccc(-c2cccc(OC)c2)c1 [Example 4, N-(3'-Methoxy-[1,1 '-biphenyl]-3-yl)propanamide] | > 7.00 | –
2 | COCC(=O)Nc1cccc(-c2cccc(OC)c2)c1 [Example 5, N-(3'-Methoxy-[1,1'-biphenyl]-3-yl)-2-methoxyacetamide] | < 6.52 | –
3 | CCCC(=O)Nc1cccc(-c2cccc(OC)c2)c1 [Example 1, N-(3'-Methoxy-[1,1'-biphenyl]-3-yl)butanamide] | > 7.00 | > 8.00
4 | COc1cccc(-c2cccc(NC(=O)C3CC3)c2)c1 [Example 3, N-(3'-Methoxy-[1,1'-biphenyl]-3-yl)cyclopropanecarboxamide] | > 7.00 | –
5 | COc1cccc(-c2cccc(NC(=O)C(C)C)c2)c1 [Example 2, N-(3'-Methoxy-[1,1'-biphenyl]-3-yl)2-methylpropanamide] | > 7.00 | < 7.30
6 | CCCC(=O)NCc1ccccc1-c1cccc(OC)c1 [Example 7, N-[(3'-Methoxy[1,1'-biphenyl]-2-yl)methyl]butanamide] | 6.52 to 7.00 | 7.30 to 8.00
7 | CCNC(=O)Nc1cccc(-c2cccc(OC)c2)c1 [Example 6, N-Ethyl N'-(3'-methoxy-[1,1'-biphenyl]-3-yl)urea] | < 6.52 | < 7.30

The remaining lines, values ahead:

Row | pIC50 [1] | pIC50 [2] | SMILES
8 | 6.52 to 7.00 | > 8.00 | COc1cccc(-c2cccc(CNC(=O)C(C)C)c2)c1 [Example 11, N-[(3'-methoxy-[1,1'-biphenyl]-3-yl)methyl]-2-methylpropanamide]
9 | < 6.52 | 7.30 to 8.00 | CCCC(=O)NCc1cccc(-c2cccc(OC)c2)c1 [Example 10, N-[(3'-methoxy-[1,1'-biphenyl]-3-yl)methyl]butanamide]
10 | < 6.52 | 7.30 to 8.00 | CCNC(=O)NCc1cccc(-c2cccc(OC)c2)c1 [Example 12, N-Ethyl N'-[(3'-methoxy-[1,1'-biphenyl]-3-yl)methyl]urea]
11 | 6.52 to 7.00 | > 8.00 | CCNC(=O)NCc1ccccc1-c1cccc(OC)c1 [Example 9, N-Ethyl N'-[(3'-methoxy[1,1'-biphenyl]-2-yl)methyl]urea]
12 | 6.52 to 7.00 | > 8.00 | COc1cccc(-c2ccccc2CNC(=O)C(C)C)c1 [Example 8, N-[(3'-Methoxy[1,1'-biphenyl]-2-yl)methyl]-2-methylpropanamide]
